Measurements published in patent publication US12077503B2, “Substituted cyclic amides and their use as herbicides” (FMC CORPORATION, priority 2015, dated 2024).

What was measured:
Format in all cases: in vivo
Kochia (Kochia scoparia) [1] = experiment: Test A preemergence; conditions: Bassia scoparia, pre-emergence, 240 h, 0 to 100 scale where 0 is no effect and 100 is complete control, read-out: Kochia plant response rating
How it was run: (§1)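 Visual injury, scored on a 0–100 scale relative to untreated controls, was recorded about 10 d after application. Treatments were a preemergence soil spray over planted seeds or a postemergence spray on plants at the one- to two-leaf stage, 2 to 10 cm tall, all in loam soil–sand blend in the greenhouse.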

[2] = system: barnyardgrass (Echinochloa crus-galli); experiment: Test A preemergence; conditions: Echinochloa crus-galli, pre-emergence, 240 h, 0 to 100 scale where 0 is no effect and 100 is complete control, read-out: Barnyardgrass plant response rating
How it was run: as §1

[3] = system: giant foxtail (Setaria faberii); experiment: Test A preemergence; conditions: Setaria faberi, pre-emergence, 240 h, 0 to 100 scale where 0 is no effect and 100 is complete control, read-out: Foxtail, Giant plant response rating
How it was run: as §1

[4] = system: pigweed (Amaranthus retroflexus); experiment: Test A preemergence; conditions: Amaranthus retroflexus, pre-emergence, 240 h, 0 to 100 scale where 0 is no effect and 100 is complete control, read-out: Pigweed plant response rating
[5] = system: ragweed (common ragweed, Ambrosia elatior); experiment: Test A preemergence; conditions: Ambrosia artemisiifolia, pre-emergence, 240 h, 0 to 100 scale where 0 is no effect and 100 is complete control, read-out: Ragweed plant response rating
How it was run: as §1

[6] = system: ryegrass, Italian (Italian ryegrass, Lolium multiflorum); experiment: Test A preemergence; conditions: Lolium multiflorum, pre-emergence, 240 h, 0 to 100 scale where 0 is no effect and 100 is complete control, read-out: Ryegrass, Italian plant response rating
How it was run: as §1

[7] = system: Galium (catchweed bedstraw, Galium aparine); experiment: Test A postemergence; conditions: Galium, post-emergence, 240 h, read-out: Galium plant response rating (0 to 100 scale)
How it was run: as §1

Kochia (Kochia scoparia) [8] = experiment: Test A postemergence; conditions: Bassia scoparia, post-emergence, 240 h, read-out: Kochia plant response rating (0 to 100 scale)
How it was run: as §1

[9] = system: barnyardgrass (Echinochloa crus-galli); experiment: Test A postemergence; conditions: Echinochloa crus-galli, post-emergence, 240 h, read-out: Barnyardgrass plant response rating (0 to 100 scale)
How it was run: as §1

[10] = system: blackgrass (Alopecurus myosuroides); experiment: Test A postemergence; conditions: Alopecurus myosuroides, post-emergence, 240 h, read-out: Blackgrass plant response rating (0 to 100 scale)
How it was run: as §1

corn (Zea mays) = experiment: Test A postemergence; conditions: Zea mays, post-emergence, 240 h, read-out: Corn plant response rating (0 to 100 scale)
How it was run: as §1

[11] = system: giant foxtail (Setaria faberii); experiment: Test A postemergence; conditions: Setaria faberi, post-emergence, 240 h, read-out: Foxtail, Giant plant response rating (0 to 100 scale)
How it was run: as §1

[12] = system: pigweed (Amaranthus retroflexus); experiment: Test A postemergence; conditions: Amaranthus retroflexus, post-emergence, 240 h, read-out: Pigweed plant response rating (0 to 100 scale)
How it was run: as §1

[13] = system: ragweed (common ragweed, Ambrosia elatior); experiment: Test A postemergence; conditions: Ambrosia artemisiifolia, post-emergence, 240 h, read-out: Ragweed plant response rating (0 to 100 scale)
How it was run: as §1

[14] = system: ryegrass, Italian (Italian ryegrass, Lolium multiflorum); experiment: Test A postemergence; conditions: Lolium multiflorum, post-emergence, 240 h, read-out: Ryegrass, Italian plant response rating (0 to 100 scale)
How it was run: as §1

[15] = system: wheat (Triticum aestivum); experiment: Test A postemergence; conditions: Triticum aestivum, post-emergence, 240 h, read-out: Wheat plant response rating (0 to 100 scale)
How it was run: as §1

[16] = system: barnyardgrass (Echinochloa crus-galli); experiment: Test B flooded paddy test; conditions: Echinochloa crus-galli, 250 g ai/ha, Flood; 0 to 100 scale where 0 is no effect and 100 is complete control; read-out: Barnyardgrass plant response rating
How it was run: (§2)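 Visual ratings (0 none to 100 complete control) are relative to untreated plants, taken 13–15 d after treatment in a greenhouse. Test material went straight into floodwater standing 3 cm above the soil, kept constant, on plants at the 2-leaf stage.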

[17] = system: ducksalad (Heteranthera limosa); experiment: Test B flooded paddy test; conditions: Heteranthera limosa, 250 g ai/ha, Flood; 0 to 100 scale where 0 is no effect and 100 is complete control; read-out: Ducksalad plant response rating
How it was run: as §2

rice (Oryra sativa) = experiment: Test B flooded paddy test; conditions: Oryza sativa, 250 g ai/ha, Flood; 0 to 100 scale where 0 is no effect and 100 is complete control; read-out: Rice plant response rating
How it was run: as §2

[18] = system: sedge, umbrella (small-flower umbrella sedge, Cyperus difformis); experiment: Test B flooded paddy test; conditions: Cyperus difformis, 250 g ai/ha, Flood; 0 to 100 scale where 0 is no effect and 100 is complete control; read-out: Sedge, Umbrella plant response rating
How it was run: as §2

[19] = 125 g ai/ha, preemergence, visual injury rating, approximately 10 d
[20] = 125 g ai/ha, postemergence, visual injury vs untreated controls after approx. 10 d, 0 = no effect, 100 = complete control
[21] = Postemergence, 31 g ai/ha, 0 is no effect, 100 is complete control

Work on `Cc1ccc([C@H]2CN(C)C(=O)[C@@H]2C(=O)Nc2cccc(C#N)c2F)cc1` [Compound 1188] yielded a pest or weed control at 31 g/ha (Kochia (Kochia scoparia) [1]; 31 g ai/ha, Preemergence) of 60%, a pest or weed control at 125 g/ha (Kochia (Kochia scoparia) [1]; [19]) of 80% and a pest or weed control at 31 g/ha ([2]; 31 g ai/ha, Preemergence) of 90%. It also gave a pest or weed control at 125 g/ha [2, 19] of 100%, a pest or weed control at 31 g/ha ([3]; 31 g ai/ha, Preemergence) of 90% and a pest or weed control at 125 g/ha [3, 19] of 100%. For the same compound, the pest or weed control at 31 g/ha ([4]; 31 g ai/ha, Preemergence) was 40%, the pest or weed control at 125 g/ha [4, 19] was 80% and the pest or weed control at 31 g/ha ([5]; 31 g ai/ha, Preemergence) was 30%. The pest or weed control at 125 g/ha [5, 19] was 70%, the pest or weed control at 31 g/ha ([6]; 31 g ai/ha, Preemergence) was 0% and the pest or weed control at 125 g/ha [6, 19] was 60%. For the same compound, the pest or weed control at 125 g/ha [7, 20] was 60%, the pest or weed control at 31 g/ha [7, 21] was 50% and the pest or weed control at 125 g/ha (Kochia (Kochia scoparia) [8]; [20]) was 50%. The pest or weed control at 31 g/ha (Kochia (Kochia scoparia) [8]; [21]) was 0%, the pest or weed control at 125 g/ha [9, 20] was 100% and the pest or weed control at 31 g/ha [9, 21] was 70%. The pest or weed control at 125 g/ha [10, 20] was 70%, the pest or weed control at 31 g/ha [10, 21] was 30% and the plant injury at 125 g/ha (corn (Zea mays); [20]) was 50%. The plant injury at 31 g/ha (corn (Zea mays); [21]) was 0%, the pest or weed control at 125 g/ha [11, 20] was 80% and the pest or weed control at 31 g/ha [11, 21] was 70%. For the same compound, the pest or weed control at 125 g/ha [12, 20] was 20%, the pest or weed control at 31 g/ha [12, 21] was 0% and the pest or weed control at 125 g/ha [13, 20] was 40%. For the same compound, the pest or weed control at 31 g/ha [13, 21] was 0%, the pest or weed control at 125 g/ha [14, 20] was 40% and the pest or weed control at 31 g/ha [14, 21] was 0%. It also gave a plant injury at 125 g/ha [15, 20] of 40%, a plant injury at 31 g/ha [15, 21] of 0% and a pest or weed control at 250 g/ha [16] of 65%. The pest or weed control at 250 g/ha [17] was 100%, the pest or weed control at 250 g/ha (rice (Oryra sativa)) was 15% and the pest or weed control at 250 g/ha [18] was 0%.
